Results from patent US12128040B2, “Selective estrogen receptor degraders” (Eli Lilly and Company, priority 2018, dated 2024).

Tests used:
ERα (wild type) = molecular target: T1, ERα (wild type) (Homo sapiens, UniProt P03372); test: ERα (wild type) competition binding assay; details: recombinant ERα wild type, 3H-estradiol competition, n=3
T1 sequence (P03372 1-595): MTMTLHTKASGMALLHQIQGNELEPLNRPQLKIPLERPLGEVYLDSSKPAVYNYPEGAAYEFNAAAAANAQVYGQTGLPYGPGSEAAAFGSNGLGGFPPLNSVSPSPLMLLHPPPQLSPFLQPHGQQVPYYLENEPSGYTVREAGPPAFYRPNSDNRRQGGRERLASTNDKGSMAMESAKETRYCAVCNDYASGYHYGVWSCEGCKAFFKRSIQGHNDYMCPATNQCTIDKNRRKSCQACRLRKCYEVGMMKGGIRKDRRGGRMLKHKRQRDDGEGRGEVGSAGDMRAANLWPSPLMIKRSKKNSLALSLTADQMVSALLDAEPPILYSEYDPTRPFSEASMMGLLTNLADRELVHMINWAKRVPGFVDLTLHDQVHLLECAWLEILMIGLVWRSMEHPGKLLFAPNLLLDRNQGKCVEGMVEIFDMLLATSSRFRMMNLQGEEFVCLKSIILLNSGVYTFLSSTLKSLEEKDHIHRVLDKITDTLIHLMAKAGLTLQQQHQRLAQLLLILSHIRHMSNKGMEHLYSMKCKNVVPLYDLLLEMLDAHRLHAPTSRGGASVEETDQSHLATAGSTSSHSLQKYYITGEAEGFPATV
Description: The purpose of the following ER competition binding assays is to determine the binding affinity of a test compound against ERα (wild type) and ERα (Y537S mutant) See Fanning et al., “Estrogen receptor alpha somatic mutations Y537S and D538G confer breast cancer endocrine resistance by stabilizing the activating function-2 binding conformation,” eLife 2016; 5:e12792.
Run the competition binding assay in a buffer containing 50 mM HEPES, pH 7.5, 1.5 mM EDTA, 150 mM NaCl, 10% glycerol, 1 mg/mL ovalbumin, and 5 mM DTT, using 0.025 µCi per well ^3H-estradiol (118 Ci/mmol, 1 mCi/mL), 7.2 ng/well ERα (wild type), or 7.2 ng/well ERα (Y537S mutant). Add the test compound at 10 different concentrations ranging from 10,000 nM to 0.5 nM, and determine nonspecific binding in the presence of 1 μM of […]. Incubate the binding reaction (140 μL) for 4 hours at room temperature, and then add cold dextran-charcoal buffer (70 μL) (containing per 50 mL of assay buffer, 0.75 g of charcoal and 0.25 g of dextran) to each reaction. Mix the plates for 8 minutes on an orbital shaker at 4° C. and then centrifuge at 3000 rpm at 4° C. for 10 minutes. […] After an incubation of 2.5 hours, read the plates in a Wallac Microbeta counter. […]

ERα receptor = test: PRα inhibition (ERα functional antagonism) cell assay in MCF7 cells; format: cell-based; details: Homo sapiens, pretreated with 0.47 nM estradiol, n=15, read-out: Relative IC50 (nM), PRα inhibition
Excerpt: The purpose of the following PRα inhibition (ERα functional antagonism) cell assay is to determine the antagonistic activity of a test compound against the ERα receptor. An antagonist in this assay is expected to block the function of the ERα receptor.
Carry out the assay conditions as detailed in the ERα degradation Cell base Acumen assay above, using the MCF7 cell line except that, prior to test compound dispensing, remove the media from the cell plate and pretreat all wells except for the negative control wells (column 24 of the plate) with assay media containing 0.47 nM estradiol for 30 minutes. In this assay, carry out immunostaining for the detection of PRα and scan the plates with ACUMEN EXPLORER™ [Laser-scanning fluorescence microplate cytometer manufactured by TTP LABTECH LTD] to measure PRα. Image analysis is based on cellular fluorescent signals for identifying positive cells. Identify PRα positive cells by mean intensity. Use total intensity at 575-640 from propidium iodide/DNA to identify individual cells. Assay output is % PRα positive cells. Determine the IC50 by curve fitting to a four parameter logistic for each output using GENE DATA™.

MCF7 xenograft tumor = test: In vivo tumor growth inhibition study in MCF7 xenograft tumor implanted in mice; details: MCF7 breast cancer xenograft, 30 mg/kg QD, oral gavage
Description: The purpose of the following xenograft tumor growth inhibition assay is to measure reduction in tumor volume in response to test compound administration.
Twenty-four hours prior to implantation of MCF7 cells, implant estrogen pellets (0.18 mg/pellet, […], 90-day release, Innovative Research) subcutaneously.

- Ki (ERα (wild type)): 3.78 ± 0.74 nM
- IC50 (ERα receptor): 15.8 ± 9.04 nM
Compound: O=C(c1ccc(OCCN2CC(CF)C2)cc1)c1c(-c2ccc(C(F)(F)F)cc2F)cnc2cc(O)ccc12 [Example 1, (4-{2-[3-(Fluoromethyl)azetidin-1-yl]ethoxy}phenyl){3-[2-fluoro-4-(trifluoromethyl)phenyl]-7-hydroxyquinolin-4-yl}methanone]
- Delta T/C % or Regression % (MCF7 xenograft tumor): −36%
